The text below walks through data of paper PMC6389993, “Quercetin and its metabolite isorhamnetin promote glucose uptake through different signalling pathways in myotubes” (Scientific Reports, 2019).

For one data set, the system named is AMPK. The experiment in a line: Phosphorylation of AMPK in L6 myotubes (western blot). Format: cell-based, rat. The following applies: 15 min. Here is the method: (§1) In vitro cultured cell experiments were conducted according to a previously described protocol[6],[14]. Briefly, L6 myoblasts derived from rat skeletal muscle and of less than 40 passages were maintained in MEM supplemented with 10% foetal bovine serum (FBS) and antibiotics (100 U/ml penicillin and 100 μg/ml streptomycin) at 37 °C under a humidified atmosphere condition of 5% CO2 and 95% air. In each experiment, cells (2.2 × 10^4 cells/ml) were seeded into 96-well plates or 60-mm dishes for induction of differentiation into mature myotubes. After reaching confluence, cells were supplemented with differentiation medium containing 2% FBS and the same antibiotics for 7 days. Cells were used for each experiment after morphological analysis of differentiation status using phase-contrast microscopy. To explore the contribution of CaMKKβ or intracellular-free calcium ions in quercetin- and isorhamnetin-stimulated GLUT4 translocation, L6 cells were incubated in the presence or absence of 10 μM STO-609 and 25 μM […], respectively, for 30 min prior to treatment with either quercetin or isorhamnetin.
(§2) For in vitro cell culture experiments, after serum starvation for 18 h, myotubes were treated with various concentrations of quercetin or isorhamnetin (0.1–10 nM) for 15 min; DMSO (final 0.1%) was used as a vehicle control. As positive controls, 100 nM insulin, 1 mM AICAR, 10 nM leptin, or 100 ng/mL IL-15 were used for insulin, AMPK, JAK2/STAT, or JAK3/STAT signalling pathways, respectively. Cells were treated with insulin or AICAR for 15 min, leptin for 60 min, or IL-15 for 24 h. Whole protein and plasma membrane fractions were prepared from myotubes, as previously described. For in vivo experiment, plasma membrane fraction and tissue lysate of soleus muscle were prepared.
(§3) Translocation of GLUT4 to the plasma membrane, as well as expression and phosphorylation levels of GLUT4-related regulators were estimated by western blot analysis. Briefly, equal amounts of proteins were separated by sodium dodecyl sulfate-polyacrylamide gel electrophoresis (SDS-PAGE). Separated proteins were transferred onto a polyvinylidene fluoride membrane and nonspecific binding sites were blocked using either Blocking One (to detect unphosphorylated proteins) or Blocking One-P (to detect phosphoproteins). The membrane was incubated overnight with an appropriate primary antibody for GLUT4 (1:5000), IR (1:10000), p-IRS1 (1:5000), IRS1 (1:5000), p-PI3K (1:5000), PI3K (1:10000), p-Akt (1:5000), Akt (1:10000), p-AMPKα (1:5000), AMPKα (1:10000), p-ACC (1:5000), ACC (1:10000), p-LKB1 (1:5000), LKB1 (1:10000), p-JAK2 (1:5000), JAK2 (1:5000), p-JAK3 (1:5000), JAK3 (1:10000), p-STAT1 (1:5000), STAT1 (1:10000), p-STAT3 (1:5000), STAT3 (1:10000), p-STAT5 (1:5000), STAT5 (1:10000), or β-actin (1:20000), and subsequently treated with the corresponding horseradish peroxidase-conjugated secondary antibody (1:50000) for 1 h. Specific immune complexes were developed using ImmunoStar® LD and detected with an ATTO Light-Capture II Western Blotting Detection System. Individual band density was calculated by ImageJ and normalized to the control.
42 after morphological analysis of differentiation status using phase-contrast microscopy.
43 Preparation of whole protein and plasma membrane fractions After serum starvation
44 for 18 h, myotubes were treated with various concentrations of quercetin or isorhamnetin (1–
45 10 μM) for 15 min; DMSO (final 0.1%) was used as a vehicle control. As positive controls, […]
In general terms: In western blotting, separated proteins are transferred to a membrane and probed.

Data set [1] in a line: Plasma concentrations of quercetin and isorhamnetin in mice after oral EMIQ (HPLC). It is filed as in vivo. The following applies: male, ICR, mouse, HPLC without deconjugation, read-out: Concentration in plasma, Aglycone form. Here is the method:
All animal experiments were performed according to the guidelines for animal experiments at Kobe University Animal Experimentation Regulation and approved by the Institutional Animal Care and Use Committed of Kobe University (Permission 29-05-02). Male ICR mice (5 weeks old, n = 20) were obtained from Japan SLC (Shizuoka, Japan) and maintained at constant temperature (23 ± 2 °C) with a 12 h light-dark cycle (lights on at 8:00 am). Mice were subsequently randomly divided into four groups of five each, and acclimatized for 1 week with free access to tap water and a laboratory-purified diet (3.850 kcal/g diet) consisting of 76% carbohydrate, 15% protein and 9% fat) (Research Diets, Tokyo, Japan). For analysis of concentrations of quercetin and isorhamnetin in the plasma and GLUT4 translocation in the muscle, mice were orally administrated EMIQ at 10, 100, or 1000 mg/kg body weight, or water as a vehicle control after 18 h fasting. The mice were sacrificed 90 min after the administration under anesthesia using sodium pentobarbital and seroflurane, and euthanized by exsanguination from cardiac puncture. Plasma and soleus muscle were collected, and kept at -80 °C until use.
To determine the levels of quercetin and isorhamnetin after administration of EMIQ, the obtained plasma were analyzed using HPLC (UV 370 nm) with or without deconjugation treatment using glucuronidase/sulfatase[16]. Briefly, an aliquot of 250 μl of plasma was mixed with 50 μl of 20% (w/v) ascorbic acid and incubated with 125 μl of 75 mM potassium phosphate buffer (pH 6.8) with or without 500 U/sample β-glucronidase and 125 μl of 200 mM sodium acetate buffer (pH 5.0) with or without 10 U/sample sulfatase for 2 h at 37 °C after adding 2 μl of 1 mM nobiletin as an internal standard. To separate quercetin and isorhamnetin, mixture was applied on a Sep-Pak C18 1 cc Vac Cartridge and eluted with 2 ml 95% (v/v) methanol. After eluate was dried by evaporation, dried material was dissolved in 50 μl of 50% (v/v) methanol and applied to HPLC. HPLC was performed using a SHIMADZU LabSolutions system (SHIMADZU, Kyoto, Japan) with SPD-M20A diode array detector. HPLC separation was done with a gradient system using 0.02% aqueous phosphoric acid as mobile phase A and acetonitrile as mobile phase B with a Cadenza CL-C18 column (φ 4.6 mm × 250 mm, Kyoto, Japan) at a flow rate of 1.0 ml/min. The gradient program was 0–13 min, 20% B, 13–33 min, 50–80% B, 33–43 min, 100% B, 43–60 min, 20% B.

A further data set relates to GLUT4. The experiment in a line: GLUT4 translocation to the plasma membrane in L6 myotubes (western blot). It is filed as cell-based, rat. The following applies: for GLUT4 translocation to the plasma membrane / expression level of GLUT4: 15 min; for expression level of GLUT4: 0.1–10 nM. The method, then: as §1, §2, §3
Where [2] appears, read: higher concentrations (1 μM and 10 μM).

Like-named read-outs stand apart in the source and are kept apart here.

In the case of `COc1cc(-c2oc3cc(O)cc(O)c3c(=O)c2O)ccc1O` [isorhamnetin, 3′-O-methyl quercetin], the AMPK phosphorylation result in the data set on AMPK (setting [2]) is given as “induced phosphorylation of AMPK”. Also, the concentration at 90 min in data set [1] (in vivo, 90 min after oral EMIQ 1000 mg/kg body weight) was found to be 131 ± 51.5 nM. In addition, the “GLUT4 translocation to the plasma membrane” value in the data set on GLUT4 (1 nM) and in the data set on GLUT4 (10 nM) was “significantly increased GLUT4 translocation” each time. Further, in the data set on GLUT4, the “expression level of GLUT4” value is “remained unchanged”.

Consider `O=c1c(O)c(-c2ccc(O)c(O)c2)oc2cc(O)cc(O)c12` [quercetin, 3,3′,4′,5,7-pentahydroxy flavone], for which the AMPK phosphorylation entry with AMPK (0.1 nM and 1 nM) is “promoted AMPK phosphorylation”; with AMPK (setting [2]), “induced phosphorylation of AMPK”. In addition, the concentration at 90 min is 4.95 ± 0.82 nM in data set [1] (plasma, oral, 90 min after oral EMIQ 10 mg/kg body weight); 6.8 ± 2 nM in data set [1] (plasma, oral, 90 min after oral EMIQ 100 mg/kg body weight); 138 ± 45.1 nM in data set [1] (plasma, oral, 90 min after oral EMIQ 1000 mg/kg body weight). The “GLUT4 translocation to the plasma membrane” value with GLUT4 (0.1 nM), in the data set with GLUT4 (1 nM) and with GLUT4 (10 nM) was “significantly increased GLUT4 translocation” throughout. Also, the “time-dependent changes in GLUT4 translocation” value with GLUT4 (1 nM, monitored 0–240 min) is “bell-shaped curve”. Further, the “expression level of GLUT4” value with GLUT4 is on record as “remained unchanged”.
